# Earlier results, collected in patent publication US20060078974A1, “Novel purified hydroxymethylglutaryl-CoA reductases and structures thereof” (Affinium Pharmaceuticals, Inc., priority 2004, published 2006).
# Target: S. aureus HMGR
# Details: inhibition of S. aureus HMGR; reported value
compound,measurement,value
CC(C)n1c(/C=C/[C@@H](O)C[C@@H](O)CC(=O)O)c(-c2ccc(F)cc2)c2ccccc21 (racemic) [Fluvastatin],Ki,~320 µM
